# According to patent publication US10214507B2, “Carbazole-containing amides, carbamates, and ureas as cryptochrome modulators” (Reset Therapeutics, Inc., priority 2014, dated 2019):
# Test system: stable U20S reporter cells harboring Per2-dLuc
# Assay: Per2 assay for evaluating the potency of test compounds (circadian luciferase reporter)
# Format: cell-based
# Conditions: amplitude of Per2-dLuc luminescence vs log concentration
# Description: Compounds were screened by using a high-throughput circadian assay system as previously described in Zhang, E. E. et al. Cell, 2009, 139, 199-210. In brief, stable U20S reporter cells harboring Per2-dLuc were plated at a density of 30,000 cells/well in Corning 96-well, solid white, flat bottom, TC-treated microplates (Corning®), and incubated for 48 hours at 37° C. in the presence of 5% CO2 in a medium of Dulbecco's Modified Eagle Medium (DMEM) supplemented with 10% fetal bovine serum (FBS) and penicillin (100 units/mL)-streptomycin (100 μg/mL). […] DMSO stocks are then serially diluted in DMSO, typically diluting 3-fold for each dilution step. Following the 48 h period, cell culture medium is removed from plated cells and cells are synchronized with 200 μL/well of complete cell culture medium (described above), supplemented with 5 μM forskolin (Tocris®) and 1 mM beetle luciferin (Promega®). Immediately following synchronization, 1 μL of compound dilution is added to each well. Plates are sealed, shaken briefly, and gene expression was monitored by measuring luminescence (Tecan® Infinite M200 or Tecan® Infinite M200 Pro) continuously for a minimum of 3 days at 35° C. Raw luminescence data (counts) are first analyzed using Multicycle™ software (Actimetrics, Inc.) to determine the amplitude (amp), period, and phase (phz) for each compound concentration. The period length for control wells (i.e. no compound, DMSO only) should be 26-30 h. Amp data are then plotted against the logarithm compound concentration (M) and analyzed by nonlinear regression analysis to determine the EC50.
row,SMILES,EC50 [nM]
1,"C[C@H]1CCN(C[C@H](O)Cn2c3ccccc3c3ccccc32)C1=O [Compound 117, (S)-1-((R)-3-(9H-carbazol-9-yl)-2-hydroxypropyl)-3-methylpyrrolidin-2-one]",188
2,"CCN1CCN(CC(O)Cn2c3ccc(F)cc3c3cc(F)ccc32)C1=O (stereo not drawn) [Compound 73, 1-(3-(3,6-difluoro-9H-carbazol-9-yl)-2-hydroxypropyl)-3-ethylimidazolidin-2-one]",1110
3,"O=C1N(CC(O)Cn2c3ccccc3c3ccccc32)CCN1C1CC1 (stereo not drawn) [Compound 97, 1-(3-(9H-carbazol-9-yl)-2-hydroxypropyl)-3-cyclopropylimidazolidin-2-one]",315
4,"C[C@@H]1CCN(C[C@H](O)Cn2c3ccccc3c3ccccc32)C1=O [Compound 118, (R)-1-((R)-3-(9H-carbazol-9-yl)-2-hydroxypropyl)-3-methylpyrrolidin-2-one]",120
5,"O=C1Nc2ccccc2CN1CC(O)Cn1c2ccc(F)cc2c2cc(F)ccc21 (stereo not drawn) [Compound 103, 3-(3-(3,6-difluoro-9H-carbazol-9-yl)-2-hydroxypropyl)-3,4-dihydroquinazolin-2(1H)-one]",940
6,"CC1CCCC(=O)N1CC(O)Cn1c2ccccc2c2ccccc21 (stereo not drawn) [Compound 63, 1-(3-(9H-carbazol-9-yl)-2-hydroxypropyl)-6-methylpiperidin-2-one]",541
7,"CC1CCN(CC(C)(O)Cn2c3ccc(F)cc3c3cc(F)ccc32)C1=O (stereo not drawn) [Compound 30, 1-(3-(3,6-difluoro-9H-carbazol-9-yl)-2-hydroxy-2-methylpropyl)-3-methylpyrrolidin-2-one]",895
8,"CCN1CCCN(CC(O)Cn2c3ccccc3c3ccccc32)C1=O (stereo not drawn) [Compound 95, 1-(3-(9H-carbazol-9-yl)-2-hydroxypropyl)-3-ethyltetrahydropyrimidin-2(1H)-one]",568
9,"CC1CCCC(=O)N1CC(O)Cn1c2ccc(F)cc2c2cc(F)ccc21 (stereo not drawn) [Compound 39, 1-(3-(3,6-difluoro-9H-carbazol-9-yl)-2-hydroxypropyl)-6-methylpiperidin-2-one]",342
10,"CC1CCN(CC(O)Cn2c3ccc(F)cc3c3cc(F)ccc32)C1=O (stereo not drawn) [Compound 29, 1-(3-(3,6-difluoro-9H-carbazol-9-yl)-2-hydroxypropyl)-3-methylpyrrolidin-2-one]",422
11,"O=C1COCCN1CC(O)Cn1c2ccc(F)cc2c2cc(F)ccc21 (stereo not drawn) [Compound 55, 4-(3-(3,6-difluoro-9H-carbazol-9-yl)-2-hydroxypropyl)morpholin-3-one]",738
12,"O=C1N(CC(O)Cn2c3ccccc3c3ccccc32)CCCN1C1CCC1 (stereo not drawn) [Compound 100, 1-(3-(9H-carbazol-9-yl)-2-hydroxypropyl)-3-cyclobutyltetrahydropyrimidin-2(1H)-one]",721
13,"CC1CCN(CC(O)Cn2c3ccccc3c3ccccc32)C(=O)C1 (stereo not drawn) [Compound 61, 2-(3-(9H-carbazol-9-yl)-2-hydroxypropyl)-4-methylpiperidin-2-one]",710
14,"C[C@@](O)(CN1CC[C@@H](F)C1=O)Cn1c2ccccc2c2ccccc21 [Compound 123, (R)-1-((S)-3-(9H-carbazol-9-yl)-2-hydroxy-2-methylpropyl)-3-fluoropyrrolidin-2-one]",311
15,"C[C@H]1CCC(=O)N(C[C@H](O)Cn2c3ccccc3c3ccccc32)C1 [Compound 129, (S)-1-((R)-3-(9H-carbazol-9-yl)-2-hydroxypropyl)-5-methylpiperidin-2-one]",748
16,"O=C1C(C2CCCC2)CCN1CC(O)Cn1c2ccc(F)cc2c2cc(F)ccc21 (stereo not drawn) [Compound 18, 3-cyclopentyl-1-(3-(3,6-difluoro-9H-carbazol-9-yl)-2-hydroxypropyl)pyrrolidin-2-one]",338
17,"C[C@](O)(CN1CC[C@H](F)C1=O)Cn1c2ccccc2c2ccccc21 [Compound 128, (S)-1-((R)-3-(9H-carbazol-9-yl)-2-hydroxy-2-methylpropyl)-3-fluoropyrrolidin-2-one]",172
18,"CC(O)(CN1CCCCC1=O)Cn1c2ccccc2c2ccccc21 (stereo not drawn) [Compound 66, 1-(3-(9H-carbazol-9-yl)-2-hydroxy-2-methylpropyl)piperidin-2-one]",523
19,"C[C@@H]1CN(C[C@H](O)Cn2c3ccc(F)cc3c3cc(F)ccc32)C(=O)N1 [Compound 136, (R)-1-((R)-3-(3,6-difluoro-9H-carbazol-9-yl)-2-hydroxypropyl)-4-methylimidazolidin-2-one]",826
20,"C[C@H]1CN(C[C@H](O)Cn2c3ccccc3c3ccccc32)C(=O)N1 [Compound 137, (S)-1-((R)-3-(9H-carbaxol-9-yl)-2-hydroxypropyl)-4-methylimidazolidin-2-one]",766

row,SMILES,EC50 [nM]
1,"CC1CCC(=O)N1CC(O)Cn1c2ccc(F)cc2c2cc(F)ccc21 (stereo not drawn) [Compound 34, 1-(3-(3,6-difluoro-9H-carbazol-9-yl)-2-hydroxypropyl)-5-methylpyrrolidin-2-one]",286
2,"C[C@H]1CN(C[C@H](O)Cn2c3ccc(F)cc3c3cc(F)ccc32)C(=O)N1 [Compound 135, (S)-1-((R)-3-(3,6-difluoro-9H-carbazol-9-yl)-2-hydroxypropyl)-4-methylimidazolidin-2-one]",1130
3,"CC(O)(CN1CCCC1=O)Cn1c2ccccc2c2ccccc21 (stereo not drawn) [Compound 67, 1-(3-(9H-carbazol-9-yl)-2-hydroxy-2-methylpropyl)pyrrolidin-2-one]",225
4,"C[C@@](O)(CN1CC[C@H](F)C1=O)Cn1c2ccccc2c2ccccc21 [Compound 124, (S)-1-((S)-3-(9H-carbazol-9-yl)-2-hydroxy-2-methylpropyl)-3-fluoropyrrolidin-2-one]",309
5,"O=C1N(CC(O)Cn2c3ccc(F)cc3c3cc(F)ccc32)CCC1(F)F (stereo not drawn) [Compound 58, 1-(3-(3,6-difluoro-9H-carbazol-9-yl)-2-hydroxypropyl)-3,3-difluoropyrrolidin-2-one]",716
6,"CC(C)N1CCCN(CC(O)Cn2c3ccc(F)cc3c3cc(F)ccc32)C1=O (stereo not drawn) [Compound 77, 1-(3-(3,6-difluoro-9H-carbazol-9-yl)-2-hydroxypropyl)-3-isopropyltetrahydropyrimidin-2(1H)-one]",620
7,"CC(C)N1CCCN(CC(C)(O)Cn2c3ccc(F)cc3c3cc(F)ccc32)C1=O (stereo not drawn) [Compound 80, 1-(3-(3,6-difluoro-9H-carbazol-9-yl)-2-hydroxy-2-methylpropyl)-3-isopropyltetrahydropyrimidin-2(1H)-one]",1100
8,"CC(O)(CN1CCCCC1=O)Cn1c2ccc(F)cc2c2cc(F)ccc21 (stereo not drawn) [Compound 5, 1-(3-(3,6-difluoro-9H-carbazol-9-yl)-2-hydroxy-2-methylpropyl)piperidin-2-one]",536
9,"C[C@@](O)(CN1CC[C@@H](F)C1=O)Cn1c2ccc(F)cc2c2cc(F)ccc21 [Compound 126, (R)-1-((S)-3-(3,6-difluoro-9H-carbazol-9-yl)-2-hydroxy-2-methylpropyl)-3-fluoropyrrolidin-2-one]",958
10,"CC(C)C1CCN(CC(O)Cn2c3ccc(F)cc3c3cc(F)ccc32)C1=O (stereo not drawn) [Compound 22, 1-(3-(3,6-difluoro-9H-carbazol-9-yl)-2-hydroxypropyl)-3-isopropylpyrrolidin-2-one]",261
11,"CC(C)C1CC(=O)N(CC(O)Cn2c3ccc(F)cc3c3cc(F)ccc32)C1 (stereo not drawn) [Compound 41, 1-(3-(3,6-difluoro-9H-carbazol-9-yl)-2-hydroxypropyl)-4-isopropylpyrrolidin-2-one]",373
12,"O=C1CCCCN1CC(O)Cn1c2ccccc2c2ccccc21 (stereo not drawn) [Compound 1, 1-(3-(9H-carbazol-9-yl)-2-hydroxypropyl)piperidin-2-one]",171
13,"CC(O)(CN1CCCC(C2CCCCC2)C1=O)Cn1c2ccc(F)cc2c2cc(F)ccc21 (stereo not drawn) [Compound 21, 3-cyclohexyl-1-(3-(3,6-difluoro-9H-carbazol-9-yl)-2-hydroxy-2-methylpropyl)piperidin-2-one]",1040
14,"O=C1N(CC(O)Cn2c3ccccc3c3ccccc32)CCN1C1CCC1 (stereo not drawn) [Compound 96, 1-(3-(9H-carbazol-9-yl)-2-hydroxypropyl)-3-cyclobutylimidazolidin-2-one]",493
15,"O=C1[C@@H](F)CCN1C[C@H](O)Cn1c2ccccc2c2ccccc21 [Compound 122, (S)-1-((R)-3-(9H-carbazol-9-yl)-2-hydroxypropyl)-3-fluoropyrrolidin-2-one]",263
16,"CC1(C)CCCN(CC(O)Cn2c3ccc(F)cc3c3cc(F)ccc32)C1=O (stereo not drawn) [Compound 16, 1-(3-(3,6-difluoro-9H-carbazol-9-yl)-2-hydroxypropyl)-3,3-dimethylpiperidin-2-one]",463
17,"C[C@@H]1CCC(=O)N1C[C@H](O)Cn1c2ccc(F)cc2c2cc(F)ccc21 [Compound 109, (R)-1-((R)-3-(3,6-difluoro-9H-carbazol-9-yl)-2-hydroxypropyl)-5-methylpyrrolidin-2-one]",226
18,"CC(O)(CN1CCC(F)C1=O)Cn1c2ccc(F)cc2c2cc(F)ccc21 (stereo not drawn) [Compound 10, 1-(3-(3,6-difluoro-9H-carbazol-9-yl)-2-hydroxy-2-methylpropyl)-3-fluoropyrrolidin-2-one]",487
19,"O=C1[C@@H]2CC[C@@H](C2)N1C[C@H](O)Cn1c2ccccc2c2ccccc21 [Compound 106, (1S,4R)-2-((R)-3-(9H-carbazol-9-yl)-2-hydroxypropyl)-2-azabicyclo[2.2.1]heptan-3-one]",220
